The values below come from patent publication US5208260A, “Vinyl Glycine derivatives for memory and learning enhancement or treatment of a cognitive disorder” (priority 1990, dated 1993).

One data set deals with neurons. Particulars: J. W. Olney (1969); J. W. Olney et al. (1971); cited from earlier work.
In data set [1] the target is T1, strychnine-insensitive Glycine receptor (Rattus norvegicus, UniProt P35439).
T1 construct: synaptic plasma membranes (SPM) prepared from rat forebrain; from tissue; host or cells: rat forebrain synaptic plasma membranes, male Sprague Dawley, 30-45 days old (animals from Sasco, St. Charles Mo.)
The data set can be described thus: [3H]Glycine binding inhibition, Triton-washed rat forebrain synaptic plasma membranes (SPM). Particulars: inhibition of 10 nM [3H]glycine binding, pH 7.4, 10 min at 2° C., nonspecific: 100 μM glycine, read-out: AFFINITY [3H]GLYCINE (Ki). As to the method: (§1) [^3 H]Glycine binding was performed using Triton ×-100 washed synaptic plasma membranes (SPM) prepared from rat forebrain (30-45 day old, male Sprague Dawley; Sasco, St. Charles Mo.). The assay was initiated by the addition of 0.2-0.4 mg of SPM to an incubation containing 10 nM [^3 H]glycine (43.5 Ci/mmole; New England Nuclear, Boston Mass.), and various concentrations of the appropriate test compounds in a total volume of 1 ml, with all additions made in […] Tris/acetate, pH 7.4. Following a 10 min incubation at 2° C. the bound radioactivity was separated from the free by either centrifugation (12000 g for 25 min at 4° C.) or vacuum filtration through Whatman GF/B filters using a Brandel MB-18 Harvester. The Kd and Bmax values for [^3 H]glycine were similar using either separation technique. The radioactivity associated with the SPM was quantitated using liquid scintillation spectrometry. Ki values for the inhibition of [ ^3 H]glycine binding were determined using logit-log analysis, with nonspecific binding determined using 100 μM glycine. Modulation of [^3 H]TCP binding was performed using Triton ×-100 (0.04% v/v) treated rat SPM that had been extensively washed. Assay incubations were at 25° C. for 60 min and contained 5.0 nM [^3 H]TCP, and various concentrations of the test compound in 5 mM Tris/HCl, pH 7.4. The assay was stopped by rapid filtration, using a Brandel MB-48 Harvester, thru Whatman GF/B filters treated with 0.05% polyethylenimine and the samples washed four times with 2.0 mls cold buffer. Radioactivity associated with the filter was determined by liquid scintillation spectrometry as described above. Nonspecific binding was defined using 60 μM PCP.

Data set [2] has as its system strychnine-insensitive glycine receptor. Particulars: structure-activity relationships, literature; cited from earlier work.
A further data set concerns the target T2, NMDA receptor (Rattus norvegicus, UniProt P35439).
T2 construct: treated rat SPM that had been extensively washed; from tissue; host or cells: rat synaptic plasma membranes, Triton-treated and extensively washed
As to the kind of experiment: Modulation of [3H]TCP binding, Triton-treated, extensively washed rat SPM (functional analysis, agonist/antagonist character). Particulars: 1 h, 5.0 nM [3H]TCP, 25° C., 60 min, pH 7.4, % of maximal glycine stimulation, read-out: AG/ANTAG [3H]TCP % STIM. The format is biochemical. As to the method: as §1
*The stimulation of [^3 H]TCP binding (% STIM) was expressed as a […]

The conditions of data set [3]: following milacemide administration; cited from earlier work.
For a further data set, the system named is human subjects. Particulars: B. Saletu et al (1986); cited from earlier work.
Data set [4] deals with bacterial methionine-γ-lyase. Particulars: M. Johnson et al., Biochemistry, 20, 4325-4333 (1981); cited from earlier work.
The subject of data set [5] is L-aspartate aminotransferase enzyme. The settings on record: R. R. Rando, Nature, 250, 587-588 (1974); cited from earlier work.

Take `N[C@@H](CC(=O)O)C(=O)O` [aspartic, aspartic acid]: the “excitatory and excitotoxic properties” value in the data set on neurons is “both excitatory and excitotoxic properties”.
As to `CCC/C=C/[C@@H](N)C(=O)O` (stereo in doubt) [Compound 4, trans-D-2-amino-hept-3-enoic acid], in data set [1], the Ki – broadly, a measure of affinity in units of concentration, obtained from inhibition or displacement – is 1.8 µM.
For `C[C@@H](N)C(=O)O` [D-alanine], the “affinity at strychnine-insensitive glycine receptor (in words)” value in data set [2] is given as “highest affinities”.
As to `N[C@H](/C=C/CCO)C(=O)O` (stereo in doubt) [Compound 7, trans-D-2-amino--6-hydroxy-hex-3-enoic acid], at NMDA receptor (CONC 6 (μ)), the Emax at 6 µM is 67%. Besides, the Ki in data set [1] turned out to be 0.28 µM.
With `N[C@@H](CCC(=O)O)C(=O)O` [glutamic acid], the “excitatory and excitotoxic properties” value in the data set on neurons was “both excitatory and excitotoxic properties”.
On to `C/C=C/[C@@H](N)C(=O)O` (stereo in doubt) [Compound 2, trans-D-2-amino-pent-3-enoic acid], for which the Ki in data set [1] turned out to be 4.8 µM.
As for `N[C@H](CO)C(=O)O` [D-serine], in data set [2], the “affinity at strychnine-insensitive glycine receptor (in words)” value is “highest affinities”.
As to `CCCCCC/C=C/[C@@H](N)C(=O)O` (stereo in doubt) [Compound 6, trans-D-2-amino-dec-3-enoic acid], the Emax at 100 µM at NMDA receptor (CONC 100 (μ)) turned out to be 48%. In data set [1], the Ki turned out to be 55 µM.
In the case of `CCCCCNCC(N)=O` [milacemide], in data set [3], the brain glycine content entry was “increase in brain glycine content”. Besides, in the data set with human subjects, the memory-enhancing capabilities result is “memory-enhancing capabilities”.
As to `CCCCCC/C=C/[C@H](N)C(=O)O` (stereo in doubt) [Compound 5, trans-L-2-amino-dec-3-enoic acid], on NMDA receptor (CONC 30 (μ)), the Emax at 30 µM was found to be 78%. Moreover, in data set [1], the Ki was 0.95 µM.
For the molecule `C/C=C/[C@H](N)C(=O)O` (stereo in doubt) [Compound 1, trans-L-2-amino-pent-3-enoic acid], at NMDA receptor (CONC 40 (μ)), the Emax at 40 µM was determined as 51%. Also, the Ki in data set [1] amounted to 7.2 µM. In data set [4], the “inhibition of bacterial methionine-γ-lyase” value is given as “inhibition of bacterial methionine-γ-lyase”.
Regarding `CO/C=C/[C@H](N)C(=O)O` (stereo in doubt) [L-2-amino-4-methoxy-trans-3-butenoic acid], the “inhibition of L-aspartate aminotransferase” value in data set [5] was “irreversible inhibitor”.
As for `CCC/C=C/[C@H](N)C(=O)O` (stereo in doubt) [Compound 3, trans-L-2-amino-hept-3-enoic acid], on NMDA receptor (CONC 12 (μ)), the Emax at 12 µM turned out to be 66%. Also, in data set [1], the Ki was 4.9 µM.
`N[C@@H](/C=C/CCO)C(=O)O` (stereo in doubt) [Compound 8, trans-L-2-amino-6-hydroxy-hex-3-enoic acid]: in data set [1], the Ki turned out to be 0.77 µM.
